{
  "source": "patent US20220098251A1",
  "about": "“PEPTIDE TAGS FOR LIGAND INDUCED DEGRADATION OF FUSION PROTEINS” (DANA-FARBER CANCER INSTITUTE, INC., priority 2018, published 2022)",
  "key": {"[1]": {"test_system": "Jurkat cells expressing individual ZFs in the Cilantro 2 protein degradation reporter", "assay": "Drug dependent degradation of ZFs in Cilantro 2 protein degradation reporter lentivector", "format": "cell-based", "conditions": "Cilantro 2, Jurkat cells", "from_the_text": "Next-generation sequencing of sorted cell populations encoding the ZF library was based on GFP expression. […] The experimental procedure was as described in Example 16."}, "eGFP-IKZF1Δ fusion": {"molecular_target": "T1, eGFP-IKZF1Δ fusion (Homo sapiens, UniProt Q13422)", "T1 construct": "eGFP (followed by P2A); expressed in transfected cells", "T1 sequence (Q96SW2 whole entry partner, one chain of several, the tested form may be a part)": "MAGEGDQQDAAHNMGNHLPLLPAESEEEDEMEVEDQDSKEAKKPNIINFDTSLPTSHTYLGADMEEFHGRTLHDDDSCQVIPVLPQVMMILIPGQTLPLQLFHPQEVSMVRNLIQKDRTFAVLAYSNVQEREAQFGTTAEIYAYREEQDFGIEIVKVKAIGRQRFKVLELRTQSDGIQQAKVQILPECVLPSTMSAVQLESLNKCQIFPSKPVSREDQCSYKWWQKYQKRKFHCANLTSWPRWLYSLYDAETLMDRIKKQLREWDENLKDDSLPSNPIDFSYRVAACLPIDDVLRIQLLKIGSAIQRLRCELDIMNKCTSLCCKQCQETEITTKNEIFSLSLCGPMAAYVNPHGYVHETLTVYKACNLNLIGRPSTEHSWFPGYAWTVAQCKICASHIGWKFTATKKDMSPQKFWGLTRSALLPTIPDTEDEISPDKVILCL", "T1 sequence (Q16531 whole entry partner, one chain of several, the tested form may be a part)": "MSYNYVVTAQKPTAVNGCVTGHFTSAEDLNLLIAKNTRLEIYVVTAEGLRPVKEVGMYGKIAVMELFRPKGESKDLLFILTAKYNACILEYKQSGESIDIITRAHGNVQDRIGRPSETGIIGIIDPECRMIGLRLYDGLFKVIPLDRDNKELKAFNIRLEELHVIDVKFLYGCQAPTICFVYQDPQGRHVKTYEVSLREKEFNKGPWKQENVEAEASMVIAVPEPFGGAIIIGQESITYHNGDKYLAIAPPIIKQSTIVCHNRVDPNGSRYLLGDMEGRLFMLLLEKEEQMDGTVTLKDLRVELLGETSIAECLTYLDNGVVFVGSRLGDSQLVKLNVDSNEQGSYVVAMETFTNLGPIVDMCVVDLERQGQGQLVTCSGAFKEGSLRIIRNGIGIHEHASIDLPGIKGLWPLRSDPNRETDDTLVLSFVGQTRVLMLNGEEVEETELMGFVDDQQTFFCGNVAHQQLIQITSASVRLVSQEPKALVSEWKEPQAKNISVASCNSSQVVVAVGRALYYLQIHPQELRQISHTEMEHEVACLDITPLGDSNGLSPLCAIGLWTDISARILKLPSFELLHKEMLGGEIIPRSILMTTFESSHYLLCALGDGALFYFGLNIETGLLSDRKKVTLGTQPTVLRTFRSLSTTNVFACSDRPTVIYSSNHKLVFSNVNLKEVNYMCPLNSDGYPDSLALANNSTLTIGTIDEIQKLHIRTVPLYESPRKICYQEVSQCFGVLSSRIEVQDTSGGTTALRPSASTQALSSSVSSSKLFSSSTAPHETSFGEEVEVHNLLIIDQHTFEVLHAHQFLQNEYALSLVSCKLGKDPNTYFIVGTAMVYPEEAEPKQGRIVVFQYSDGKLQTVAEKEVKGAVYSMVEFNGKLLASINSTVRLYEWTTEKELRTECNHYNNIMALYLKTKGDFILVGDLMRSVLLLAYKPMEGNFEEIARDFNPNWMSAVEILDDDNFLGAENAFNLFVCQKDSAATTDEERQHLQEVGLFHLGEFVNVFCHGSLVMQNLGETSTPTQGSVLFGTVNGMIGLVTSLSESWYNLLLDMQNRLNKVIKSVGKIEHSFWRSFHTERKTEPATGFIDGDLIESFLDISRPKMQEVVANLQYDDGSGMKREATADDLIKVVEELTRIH", "assay": "Cellular degradation assay of eGFP-IKZF1Δ reporter by flow cytometry", "format": "cell-based", "conditions": "Flip-In 293 cells, 5 h, eGFP/mCherry", "procedure": "Following 2-3 passage cycle FACS (FACSAria™ II, BD) was used to enrich for cells expressing eGFP and mCherry.\nSignal from at least 3,000 events per well was acquired, and the eGFP and mCherry florescence monitored. Data were analyzed using FlowJo™ (FlowJo™, LCC). […] The eGFP protein abundance relative to mCherry was then quantified as a ten-fold amplified ratio for each individual cell using the formula: 10×eGFP/mCherry. The median of the ratio was then calculated per set, normalized to the median of the DMSO ratio.\nQuantitative assessment of cellular degradation of a IKZF1-EGFP reporter using flow cytometry analysis. Cells stably expressing IKZF1Δ-EGFP and mCherry were treated with increasing concentrations of the indicated molecules and the EGFP and mCherry signals followed using flow cytometry analysis. Data in this figure are presented as means±s.d. from four cell culture replicates (n=4)."}, "DDB1ΔB-CRBN [2]": {"test_system": "DDB1ΔB-CRBN", "assay": "TR-FRET of SALL4 degron binding to CRBN", "parameters": "species or system human", "conditions": "for IMiD-dependent dimerization / binding affinity to CRBN: SALL4 degron tags, biochemical assays; for IMiD induced CRBN binding: purified proteins, SALL4 point mutants", "procedure": "Compounds in binding assays were dispensed into a 384-well microplate (Corning, 4514) using the D300e Digital Dispenser (HP) normalized to 1% DMSO and containing 100 nM biotinylated Strep-Avi-SALL4 (WT or mutant, see, FIG. 3A-FIG. 3K), 1 μM His6-DDB1ΔB-His6-CRBNBODIPY-Spycatcher and 4 nM terbium-coupled streptavidin (Invitrogen) in a buffer containing 50 mM Tris pH 7.5, 100 mM NaCl, 1 mM TCEP, 0.1% Pluronic F-68 solution (Sigma). Before TR-FRET measurements were conducted, the reactions were incubated for 15 minutes at room temperature (RT). After excitation of terbium fluorescence at 337 nm, emission at 490 nm (terbium) and 520 nm (boron-dipyrromethene (BODIPY)) were recorded with a 70 μs delay over 600 μs to reduce background fluorescence and the reaction was followed over 30×200 second cycles of each data point using a PHERAstar® FS microplate reader (BMG Labtech). The TR-FRET signal of each data point was extracted by calculating the 520/490 nm ratios. Data from three independent measurements (n=3), each calculated as an average of 5 technical replicates per well per experiment, was plotted and the half maximal effective concentrations EC50 values calculated using variable slope equation in GraphPad Prism 7. […] The resulting data were fitted as described previously. (Petzold et al., Nature 532:127-130 (2016))."}, "[3]": {"test_system": "Kelly cells transiently transfected with Flag-hsSALL4", "assay": "Western blot of Flag-hsSALL4 levels in Kelly cells treated with thalidomide", "format": "cell-based", "conditions": "24 hours", "procedure": "Kelly cells were transiently transfected with hsSALL4^G416A or Flag-hsSALL4^G416N were treated with increasing concentrations of thalidomide or DMSO as a control. Following 24 hours of incubation, SALL4 (α-Flag) and GAPDH protein levels were assessed by western blot analysis (FIG. 4A). (See, Example 7 for western blot method.)\nKelly cells transiently transfected with Flag-hsSALL4WT, Flag-hsSALL4G600A, or hsSALL4G600N were treated with increasing concentrations of thalidomide or DMSO as a control. Following 24 h of incubation, SALL4 (α-Flag) and GAPDH protein levels were assessed by western blot analysis (one representative experiment is shown out of three replicates).\nCells were treated with compounds as indicated and incubated for 24 hours, or as indicated. Samples were run on 4-20% or Any kD™ SDS-PAGE Gels (Bio-rad), and transferred to polyvinylidene fluoride (PVDF) membranes using the iBlot® 2.0 dry blotting system (Thermo Fisher Scientific). Membranes were blocked with LI-COR® blocking solution (LI-COR®), and incubated with primary antibodies overnight, followed by three washes in LI-COR® blocking solution and incubation with secondary antibodies for one hour in the dark. After three final washes, the membranes were imaged on a LI-COR® fluorescent imaging station."}, "DDB1ΔB-CRBN [4]": {"molecular_target": "T2, DDB1ΔB-CRBN (Homo sapiens, UniProt Q96SW2)", "T2 construct": "3C protease site (N); made in house; host or cells: Trichoplusia ni High Five insect cells (baculovirus)", "T2 sequence (Q96SW2 whole entry, stated change not applied)": "as the sequence (Q96SW2 whole entry partner, one chain of several, the tested form may be a part) above", "assay": "IKZF1Δ TR-FRET dimerization assay", "format": "binding", "conditions": "titration of IMiDs", "procedure": "Compounds in dimerization assays were dispensed in a 384-well microplate (Corning, 4514) using D300e Digital Dispenser (HP) normalized to 2% DMSO into 80 nM biotinylated StrepII-avi-IKZF1Δ (See, Figure legends), 100 nM His6-DDB1ΔB-His6-CRBNBODIPY-Spycatcher and 2 nM terbium-coupled streptavidin (Invitrogen™) in a buffer containing 50 mM Tris pH 7.5, 200 mM NaCl, 0.1% Pluronic F-68 solution (Sigma) and 2% DMSO (4% DMSO final). Before TR-FRET measurements were conducted, the reactions were incubated for 15 min at RT. After excitation of terbium fluorescence at 337 nm, emission at 490 nm (terbium) and 520 nm (BODIPY) were recorded with a […] to reduce background fluorescence and the reaction was followed over 30 200 second cycles of each data point using a PHERAstar® FS microplate reader (BMG Labtech). The TR-FRET signal of each data point was extracted by calculating the 520/490 nm ratio. The 520/490 nm ratios in IKZF1Δ TR-FRET assays were plotted to calculate or IC50 (for compound titrations) using GraphPad Prism 7 variable slope equation. The standard deviation in IKZF1Δ TR-FRET compound titrations was calculated from three independent replicates (n=3), or as an average of 5 technical replicates of single experiment for unlabeled protein titrations.\nTitration of the indicated molecules to DDB1ΔB-CRBNSPYCATCHER-BODIPY, Terbium-streptavidin and IKZF1Δbiotin. […]"}},
  "data": [
    {"molecule": "CC220-2: zinc finger degron MQCEICGFTCRRAEELNTHLNKH (SEQ ID NO: 186)", "values": [
      {"measurement": "degradation by iberdomide relative to control sequences", "setting": "[1]", "result": "more efficiently degraded by iberdomide (aka CC-220) than the indicated control sequences"}
    ]},
    {"molecule": "Nc1cccc2c1C(=O)N(C1CCC(=O)NC1=O)C2=O", "note": "(stereo not drawn) [pomalidomide]", "values": [
      {"measurement": "degradation of eGFP-IKZF1Δ fusion", "setting": "eGFP-IKZF1Δ fusion", "result": "potent degradation"}
    ]},
    {"molecule": "Nc1cccc2c1CN(C1CCC(=O)NC1=O)C2=O", "note": "(stereo not drawn) [lenalidomide]", "values": [
      {"measurement": "degradation of eGFP-IKZF1Δ fusion", "setting": "eGFP-IKZF1Δ fusion", "result": "potent degradation"}
    ]},
    {"molecule": "Q595H: SALL4 ZnF4 with mutation of glutamine 595 residue", "values": [
      {"measurement": "IMiD-dependent dimerization / binding affinity to CRBN", "setting": "DDB1ΔB-CRBN [2]", "result": "reduced binding affinity"},
      {"measurement": "protein degradation in cells", "setting": "[3]", "result": "no effect at the ability of the protein product to be degraded"}
    ]},
    {"molecule": "CC220-3: zinc finger degron FYCKQCGANFSRWEELYNHLKAH (SEQ ID NO: 187)", "values": [
      {"measurement": "degradation by iberdomide relative to control sequences", "setting": "[1]", "result": "more efficiently degraded by iberdomide (aka CC-220) than the indicated control sequences"}
    ]},
    {"molecule": "O=C1CCC(N2C(=O)c3ccccc3C2=O)C(=O)N1", "note": "(stereo not drawn) [thalidomide]", "values": [
      {"measurement": "degradation of eGFP-IKZF1Δ fusion", "setting": "eGFP-IKZF1Δ fusion", "result": "potent degradation"}
    ]},
    {"molecule": "CC220-1: zinc finger degron FYCTQCGAAFDRWEELYNHLLNH (SEQ ID NO: 185)", "values": [
      {"measurement": "degradation by iberdomide relative to control sequences", "setting": "[1]", "result": "more efficiently degraded by iberdomide (aka CC-220) than the indicated control sequences"}
    ]},
    {"molecule": "G416A: SALL4 with G416A point mutation in ZnF2", "values": [
      {"measurement": "IMiD induced CRBN binding", "setting": "DDB1ΔB-CRBN [2]", "result": "abrogated IMiD induced CRBN binding"},
      {"measurement": "protein degradation in cells", "setting": "[3]", "result": "disable degradation in cells"}
    ]},
    {"molecule": "G416N: SALL4 with G416N point mutation in ZnF2 (protein, left off: small tags and cut ends, SALL4 with G416N point mutation in ZnF2) ALYKHKCKYCSKVFGTDSSLQIHLRSHTGERPFVCSVCNHRFTTKGNLKVHFHRHPQVKAN", "values": [
      {"measurement": "IMiD induced CRBN binding", "setting": "DDB1ΔB-CRBN [2]", "result": "abrogated IMiD induced CRBN binding"},
      {"measurement": "protein degradation in cells", "setting": "[3]", "result": "disable degradation in cells"}
    ]},
    {"molecule": "SALL4 ZnF1-2: degron tag SEQ ID NO: 27 (protein) ALYKHKCKYCSKVFGTDSSLQIHLRSHTGERPFVCSVCGHRFTTKGNLKVHFHRHPQVKAN", "values": [
      {"measurement": "IMiD-dependent dimerization / binding affinity to CRBN", "setting": "DDB1ΔB-CRBN [2]", "result": "sufficient to induce efficient dimerization"}
    ]},
    {"molecule": "S388N: SALL4 ZnF1-2 with S388N mutation in ZnF1 (SEQ ID NO: 84) (protein) ALYKHKCKYCNKVFGTDSSLQIHLRSHTGERPFVCSVCGHRFTTKGNLKVHFHRHPQVKAN", "values": [
      {"measurement": "IMiD induced CRBN binding", "setting": "DDB1ΔB-CRBN [2]", "result": "maintained IMiD induced CRBN binding"}
    ]},
    {"molecule": "IKZF1 (SEQ ID NO: 18): non-naturally occurring degron tag of SEQ ID NO: 18 (protein) RMLDASGEKMNGSHRDQGSSALSGVGGIRLPNGKLKCDICGIICIGPNVLMVHKRSHTGERPFQCNQCGASFTQKGNLLRHIKLHSGEKPFKCHLCNYACRRRDALTGHLRTHSVIKEETNHSEMAEDLCK", "values": [
      {"measurement": "dimerization between CRBN-DDB1ΔB and IKZF1Δ", "setting": "DDB1ΔB-CRBN [4]", "result": "Potent dimerization"}
    ]}
  ]
}
